Source: PMC4747952, “Development of TASP0410457 (TASP457), a novel dihydroquinolinone derivative as a PET radioligand for central histamine H3 receptors” (EJNMMI Research, 2016)
pIC50: −log10 of the molar value.

Key:
[1] = Ex vivo pharmacokinetic assessment in the rat brain using LC-MS/MS; conditions: 10 μg/kg intravenous, n = 3
Description: The rats were decapitated at 5, 15, 30, 60, and 120 min after intravenous administration of TASP0390136, TASP0390174, TASP0410426, TASP0410427, TASP0410457, or TASP0434988 at a dose of 10 μg/kg. The cerebellum and forebrain, including the medial prefrontal and cingulate cortices and anterior striatum, were dissected and homogenized with four volumes of distilled water. The homogenates were protein-precipitated with methanol/acetonitrile (1:9) and were centrifuged at 3974×g for 10 min at 4 °C. The resultant supernatants were injected into an HPLC (Shimadzu-20AD, Shimadzu, Kyoto, Japan) and a tandem mass spectrometer (API4000, AB SCIEX, Framingham, MA) using a Shim-pak XR-ODS column (3.0 × 30 mm, Shimadzu) at 50 °C. TASP0410457 was eluted with a mobile phase consisting of 10 mM of ammonium acetate/acetonitrile with a linear gradient at a flow rate of 1.3 mL/min, and ammonium formate instead of ammonium acetate was used for eluting the other five compounds. […] The eluted TASP0390136, TASP0390174, TASP0410426, TASP0410427, TASP0410457, and TASP0434988 were ionized using an electrospray interface and were detected using reaction monitoring of the transitions of m/z 395 to 91, 395 to 98, 413 to 98, 425 to 98, 408 to 138, and 407 to 138, respectively. A dihydroquinolinone compound (6-[(1-cyclobutylpiperidin-4-yl)oxy]-1-(3,5-difluorophenyl)-3,4-dihydroquinolin-2(1H)-one) was used as an internal standard for all assays. The lower qualification limit for TASP0410457 was 0.05 ng/g tissue, and the limit for the other five compounds was 0.15 ng/g tissue. Data were expressed as standardized uptake values (SUVs) calculated as follows: SUV=tissueconcentrationg/g×bodyweightg/injecteddoseg

rat H3R = target: T1, rat H3R (Rattus norvegicus, UniProt Q9QYN8); assay: In vitro binding to H3Rs, rat cerebral cortex membranes, [^3H]N-α-methylhistamine; conditions: 1 nM [^3H]N-α-methylhistamine, geometric mean, n = 3, read-out: Affinity for H3Rs Rat, IC50
T1 construct: Rat cerebral cortex and monkey frontal cortex were dissected; from tissue; host or cells: rat cerebral cortex membranes
T1 sequence (Q9QYN8 whole entry): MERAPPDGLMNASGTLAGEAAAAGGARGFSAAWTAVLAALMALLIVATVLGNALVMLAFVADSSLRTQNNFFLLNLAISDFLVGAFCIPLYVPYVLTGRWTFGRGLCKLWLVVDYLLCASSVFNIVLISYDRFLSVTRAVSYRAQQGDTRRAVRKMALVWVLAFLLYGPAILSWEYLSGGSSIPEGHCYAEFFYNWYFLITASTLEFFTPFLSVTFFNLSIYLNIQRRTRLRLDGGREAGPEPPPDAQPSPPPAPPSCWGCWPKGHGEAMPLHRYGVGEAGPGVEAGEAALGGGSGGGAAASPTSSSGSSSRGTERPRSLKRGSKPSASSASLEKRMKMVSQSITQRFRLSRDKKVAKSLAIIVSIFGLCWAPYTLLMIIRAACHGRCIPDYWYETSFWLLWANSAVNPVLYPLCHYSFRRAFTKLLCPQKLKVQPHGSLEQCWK
Description: Rat cerebral cortex and monkey frontal cortex were dissected, homogenized with 50 mM Tris buffer (pH 7.4) containing 5 mM EDTA and Protease Inhibitor Cocktail Tablets (Roche Diagnostics, Indianapolis, IN) and centrifuged at 48,000×g for 15 min at 4 °C. The pellets were then suspended in binding buffer (50 mM Tris containing 5 mM EDTA, pH 7.4) and stored at −80 °C as membrane preparations.
The membrane preparations were thawed and incubated in the binding buffer containing 0.1 % bovine serum albumin, 1 nM [^3H]N-α-methylhistamine (PerkinElmer, Waltham, MA) with various concentrations of a dihydroquinolinone derivative (i.e., test compound) at 25 °C for 1 h. The reaction was terminated by rapid filtration through 96-well GF/C filter plates (PerkinElmer) presoaked with 0.5 % polyethyleneimine (Wako, Osaka, Japan). After washes with ice-cold binding buffer, the plates were dried and filled with Microscint-o (PerkinElmer). The radioactivity retained on the filters was counted using a TopCount NXT (PerkinElmer). Total and nonspecific radioligand binding was determined by reaction without and with 10 μM thioperamide and clobenpropit, respectively. The specific radioligand binding was then calculated by subtracting the nonspecific binding from the total binding. The IC50 value for inhibition of the radioligand binding by the test compound was determined using a nonlinear fit of the concentration-response curve for each test compound using SAS 9.2 (SAS Institute Inc., Cary, NC). Data were expressed as the geometric means of IC50 values from three independent experiments run in duplicate.

H3R = target: T2, H3R (Rattus norvegicus, UniProt Q9QYN8); assay: PET imaging of rat brains; type: in vivo; conditions: for cerebellar SUV at 15 min after radioligand injection: mean ± S.D.
T2 construct: from tissue; host or cells: brain of living Sprague-Dawley rats
T2 sequence (Q9QYN8 whole entry): as above
Description: Six-week-old male Sprague-Dawley rats were purchased from Japan SLC (Shizuoka, Japan). PET scans were performed using a microPET Focus 220 small-animal scanner (Siemens Medical Solutions USA, Knoxville, TN). The rats were anesthetized with 1.5–2 % isoflurane during the imaging session, while their heart rate and blood oxygen saturation were monitored by pulse oximeter (CANL-425SVA; Med Associates, St. Albans, VT). Body temperature was kept at 37 °C with a heating pad (BWT-100; Bio Research Center, Aichi, Japan). Following the transmission scans for attenuation correction using a ^68Ge-^68Ga point source, emission scans were performed for 90 min in 3D list-mode with an energy window of 350–750 keV, immediately after the intravenous injection of each radioligand. Mean ± S.D. of the injected radioactivity of [^11C]TASP0410457, [^11C]TASP0434988, and [^11C]TASP0390136 was 119 ± 26 MBq, 132 ± 34 MBq, and 124 ± 17 MBq, respectively (n = 3–5). Mean ± S.D. of the mass doses of [^11C]TASP0410457, [^11C]TASP0434988, and [^11C]TASP0390136 was 2.4 ± 1.2 μg/kg, 1.9 ± 0.4 μg/kg, and 4.2 ± 1.6 μg/kg, respectively (n = 3–5).
To assess the specificity of radioligand binding, thioperamide was injected intravenously at a dose of 10 mg/kg at 30 s before the injection of each radioligand.
All list-mode data were sorted into 3D sinograms, which were then Fourier rebinned into 2D sinograms (frames: 1 min × 4, 2 min × 8 and 5 min × 14). Images were reconstructed using 2D-filtered back-projection with a 0.5-mm Hanning filter.
PET image and magnetic resonance imaging (MRI) template were co-registered using PMOD software (PMOD version 3.206; Zurich, Switzerland) according to the following procedure as in our previous works: Outline of the whole brain and positions of eyes in PET images at an early phase of the scan were initially matched to those in MRI images, and then further translations and rotations of PET images were manually performed for fine alignments. Finally, parameters for the co-registration were applied to the entire dynamic PET data. Regions of interest (ROIs) were placed on the striatum, hippocampus, and cerebellum using PMOD software with reference to the MRI template as described elsewhere. The tissue time-activity curves (TACs) for these ROIs were generated by calculating the SUV for each time frame as follows: SUV=radioactivityBq/g×bodyweightg/injectedradiotracerdoseBq
The binding potentials relative to the non-displaceable uptake (BPND) in the striatum and hippocampus were estimated using the simplified reference tissue model (SRTM) with PMOD software using the cerebellum as a reference region, as the rat cerebellum is devoid of H3R [26].

[2] = Radiochemical stability in the final formulation; type: physicochemical; conditions: at 40 min after the end of radiosynthesis
Description: [^11C]TASP0390136, [^11C]TASP0410457, and [^11C]TASP0434988 were synthesized as shown in Fig. 1a–c (detailed procedures are described in Additional file 1: Supplemental methods) using a homemade automated synthesis system. The radiochemical purities and specific activities of the radioligands, which were analyzed as described in Additional file 1: Supplemental Methods, along with their radiochemical yields and average synthesis times, are summarized in Table 1. Analytical HPLC chromatogram of each radioligand is shown in Additional file 2-4: Figures S1-S3. The radiochemical stabilities of [^11C]TASP0410457 and [^11C]TASP0434988 in the final formulation were >99 % at 1 h and 40 min, respectively, after the end of radiosynthesis.

central H3Rs = assay: Receptor occupancy assay, [^11C]TASP0410457-PET, Lassen's plot; type: in vivo, monkey
Description: Occupancy of central H3Rs by ciproxifan, a selective antagonist/inverse agonist, was quantified by [^11C]TASP0410457-PET scans of an anesthetized monkey with arterial blood sampling. […] Receptor occupancy of ciproxifan was determined using Lassen’s plot without any reference regions using the following equation: VT^Baseline−VT^Ciproxifan=OccVT^Baseline−VND where VT^Baseline and VT^Ciproxifan are the regional VT values at baseline and in the ciproxifan challenge, respectively, VND is the non-displaceable distribution volume, and Occ is the occupancy.

[3] = thioperamide predosing 10 mg/kg
[4] = SRTM, cerebellum as reference region

Row | Mean peak concentration in the forebrain expressed as SUV [1] [SUV] | pIC50 (rat H3R) | cerebellar SUV at 15 min after radioligand injection (H3R; baseline) | cerebellar SUV at 15 min after radioligand injection (H3R; [3]) | Structure (SMILES) | further results
1 | 0.28 | > 8.52 | – | – | COc1cccc(N2C(=O)CCc3cc(OCCCN4CCC[C@H]4C)ccc32)c1 [TASP0390174, 1-(3-methoxyphenyl)-6-{3-[(2R)-2-methylpyrrolidin-1-yl]propoxy}-3,4-dihydroquinolin-2(1H)-one] | –
2 | 0.30 | > 8.52 | – | – | COc1cc(F)cc(N2C(=O)CCc3cc(OCCCN4CCC[C@H]4C)ccc32)c1 [TASP0410426, 1-(3-fluoro-5-methoxyphenyl)-6-{3-[(2R)-2-methylpyrrolidin-1-yl]propoxy}-3,4-dihydroquinolin-2(1H)-one] | –
3 | 0.10 | > 8.52 | – | – | COc1ccc(N2C(=O)CCc3cc(OCCCN4CCC[C@H]4C)ccc32)c(OC)c1 [TASP0410427, 1-(2,4-dimethoxyphenyl)-6-{3-[(2R)-2-methylpyrrolidin-1-yl]propoxy}-3,4-dihydroquinolin-2(1H)-one] | –
4 | – | – | 0.33 ± 0.01 | 0.30 ± 0.03 | C[C@@H]1CCCN1CCCOc1ccc2c(c1)CCC(=O)N2c1ccc(O[11CH3])cc1 [[^11C]TASP0390136] | –
5 | – | – | 0.64 ± 0.04 | 0.59 ± 0.02 | [11CH3]Oc1ccc(N2C(=O)CCc3cc(OC4CCN(C5CCC5)CC4)ccc32)cc1 [[^11C]TASP0434988] | radiochemical stability in the final formulation [2]: > 99%; striatal and hippocampal peak SUVs lower than those for [^11C]TASP0410457 (H3R): 20–25%; BPND, Hippocampus (H3R; [4]): 0.36 ± 0.11; BPND, Striatum (H3R; [4]): 0.92 ± 0.21; time for specific binding to reach a pseudo-equilibrium state (H3R; target-to-reference ratios, after intravenous injection): ≤ 15 min
6 | – | – | – | – | O=C(c1ccc(OCCCc2cnc[nH]2)cc1)C1CC1 [ciproxifan, reference compound] | receptor occupancy (central H3Rs; 3 mg/kg intravenously, 10 min before [^11C]TASP0410457, anesthetized monkey, Lassen's plot): ~ 75%; adverse effects preventing completion of PET imaging (central H3Rs; 10 mg/kg, monkey, anesthetized with isoflurane): profound effects on heart rates and body motions
